The source of these data is patent publication US8889677B2, “Substituted triazoles useful as mGlu5 receptor modulators” (Boehringer Ingellheim International GmbH, priority 2012, dated 2014).

In the assay the target is T1, human recombinant mGluR5 (Homo sapiens, UniProt P41594).
T1 construct: expressed in transfected cells; host or cells: HEK 293 cell line cultured with tetracycline, hygromycin and geneticin; tetracycline removed 3-7 days before the assay
T1 sequence (P41594 21-1212): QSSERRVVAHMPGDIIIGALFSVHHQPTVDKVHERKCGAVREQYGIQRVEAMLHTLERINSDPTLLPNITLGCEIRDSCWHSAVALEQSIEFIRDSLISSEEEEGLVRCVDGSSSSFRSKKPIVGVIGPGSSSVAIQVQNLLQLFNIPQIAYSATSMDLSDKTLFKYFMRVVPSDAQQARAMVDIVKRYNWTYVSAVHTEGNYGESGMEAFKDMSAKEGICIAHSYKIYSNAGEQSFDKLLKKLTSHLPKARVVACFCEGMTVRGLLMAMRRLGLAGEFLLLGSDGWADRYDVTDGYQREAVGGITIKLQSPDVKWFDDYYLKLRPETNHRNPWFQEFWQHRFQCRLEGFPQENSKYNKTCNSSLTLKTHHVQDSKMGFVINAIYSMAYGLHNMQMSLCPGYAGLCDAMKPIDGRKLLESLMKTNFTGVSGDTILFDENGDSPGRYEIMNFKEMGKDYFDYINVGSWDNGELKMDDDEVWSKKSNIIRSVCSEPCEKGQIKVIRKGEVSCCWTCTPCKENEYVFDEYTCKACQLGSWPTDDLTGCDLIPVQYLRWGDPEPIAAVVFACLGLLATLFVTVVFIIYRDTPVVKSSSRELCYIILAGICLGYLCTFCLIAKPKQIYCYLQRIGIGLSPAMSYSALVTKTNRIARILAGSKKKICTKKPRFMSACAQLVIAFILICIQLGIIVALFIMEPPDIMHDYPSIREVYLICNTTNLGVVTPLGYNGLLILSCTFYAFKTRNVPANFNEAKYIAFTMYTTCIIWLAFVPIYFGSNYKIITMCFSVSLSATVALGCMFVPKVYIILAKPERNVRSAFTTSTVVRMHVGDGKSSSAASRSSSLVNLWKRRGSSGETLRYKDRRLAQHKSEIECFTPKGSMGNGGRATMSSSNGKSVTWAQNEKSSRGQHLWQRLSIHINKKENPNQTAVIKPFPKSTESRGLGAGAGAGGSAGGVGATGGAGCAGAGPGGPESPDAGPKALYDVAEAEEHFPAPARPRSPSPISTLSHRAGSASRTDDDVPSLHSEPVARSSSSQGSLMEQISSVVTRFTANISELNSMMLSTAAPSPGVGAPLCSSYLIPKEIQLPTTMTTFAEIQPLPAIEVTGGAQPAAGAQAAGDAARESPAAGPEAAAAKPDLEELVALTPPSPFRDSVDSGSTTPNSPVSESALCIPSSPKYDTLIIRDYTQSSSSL
The assay can be described thus: positive modulation of mGluR5, calcium based FLIPR assay in HEK 293 cells. The conditions noted are these: HEK 293 cell line expressing human recombinant mGluR5; EC50 of the modulation of the glutamate response (glutamate approx. 5% basal stimulation); peak height of Ca release fluorescence signal. The essentials:
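HEK 293 cells expressing human mGluR5 (tetracycline-free medium 3-7 days before), loaded with Calcium-4 dye, in Ringer buffer pH 7.4, 1% DMSO. Compound pre-incubated 5 min, then glutamate at about 5% of maximal effect added; EC50 from peak Ca2+ fluorescence by nonlinear regression, scaled between DMSO (100%) and 10 μM CDPPB (200%) controls.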
As to `COc1cc(N2CCN(C(=O)Cn3nc(-c4ccc(F)cc4)nc3-c3ccc(F)cc3)CC2)ccn1` [Example 07.03.24.], the EC50 is 254 nM.
Consider `O=C(Cn1nc(-c2ccc(F)cc2)nc1-c1ccc(F)cc1)N1CCN(c2cc(OC[C@@H]3CCCO3)ncn2)CC1` [Example 07.09.23.], for which the EC50 amounted to 62 nM.
With `CN(C)c1cc(N2CCN(C(=O)Cn3nc(-c4ccc(F)cc4)nc3-c3ccc(F)cc3)CC2)ccn1` [Example 07.03.23.] the figure was 1010 nM; with `COc1ccc(-c2nc(-c3ccc(F)cc3)n(CC(=O)N3CCN(c4ncc(Br)cn4)CC3)n2)cc1` [Example 07.04.036.], 32 nM.
Turning to `COc1ccc(-c2nc(-c3ccccc3)n(CC(=O)N3CCN(c4ncccc4C#N)CC3)n2)cc1OC` [Example 07.02.19.], the EC50 is 494 nM.
With `CCOC(=O)c1cccc(N2CCN(C(=O)Cn3nc(-c4ccc(F)cc4)nc3-c3ccc(F)cc3)CC2)c1` [Example 07.03.02.], the EC50 is 1280 nM.
`COc1cc(N2CCN(C(=O)Cn3nc(-c4ccc(F)c(OC)c4)nc3-c3ccc(F)cc3)CC2)ncn1` [Example 07.04.158.]: the EC50 is 27 nM.
Consider `Cc1ccc(-c2nc(-c3ccccc3)n(CC(=O)N3CCN(c4ncccn4)CC3)n2)cc1C` [Example 07.10.15.], for which the EC50 was found to be 24 nM.
Consider `COc1cccc(-c2nc(-c3ccc(F)cc3)nn2CC(=O)N2CCN(c3ncccn3)CC2)c1` [Example 07.04.026.], for which the EC50 was determined as 236 nM.
As for `O=C(Cn1nc(-c2ccc(F)cc2)nc1-c1ccc(F)cc1)N1CCN(c2ncccn2)CC1` [Example 07.01.01., 2-(3,5-Bis-(4-fluoro-phenyl)-(1,2,4)triazol-1-yl)-1-(4-pyrimidin-2-yl-piperazin-1-yl)-ethanone], the EC50 was 24 nM.
For the compound `COc1cncc(N2CCN(C(=O)Cn3nc(-c4ccc(F)cc4)nc3-c3ccc(F)cc3)CC2)n1` [Example 07.03.18.], the EC50 was found to be 179 nM.
With `COc1ccnc(N2CCN(C(=O)Cn3nc(-c4ccc(F)c(C)c4)nc3CCC(C)C)CC2)c1` [Example 07.04.120.] the figure was 153 nM; with `O=C(Cn1nc(-c2ccc(F)cc2)nc1-c1ccc(F)cc1)N1CCN(c2cccnn2)CC1` [Example 07.03.12.], 134 nM.
On to `Cc1cc(-c2nc(-c3ccccc3)nn2CC(=O)N2CCN(c3ncccn3)CC2)ccc1F` [Example 07.04.073.], for which the EC50 was 87 nM.
In the case of `COc1ccnc(N2CCN(C(=O)Cn3nc(-c4ccc(F)c(C)c4)nc3C)CC2)c1` [Example 07.04.096.], the EC50 is 1520 nM.
With `O=C(Cn1nc(-c2ccc(OC(F)F)cc2)nc1-c1ccccc1)N1CCN(c2ncccn2)CC1` [Example 7.04.165] the figure was 13 nM.

The EC50 is the midpoint of the concentration-response curve.
